Results as given in US20250032569A1, “COMPOSITION, IN PARTICULAR COSMETIC FORMULATION, COMPRISING A VERBASCOSIDE EXTRACT” (MEDENA AG, priority 2021, published 2025).

What was measured:
[1] = In vitro spectrophotometric SPF calculated by the Sayre equation (Eq. 1); format: physicochemical
Protocol: Each sample (1 ml) was placed in a 1 cm quartz cell. The absorbance was measured between 250-600 nm at an interval of every 1 nm using a Varian UV/Vis spectrophotometer (Cary 50 Scan). The following parameters were measured and calculated for each sample assuming standard application to the skin—2 mg/cm^2: • the SPF values. • the critical wavelength λC • the UVA/UVB ratio 1. […]
Each sample (1 ml) was placed in a 1 cm quartz cell. The absorbance was measured between 250-600 nm at an interval of every 1 nm using a Varian UV/Vis spectrophotometer (Cary 50 Scan). The following parameters were measured and calculated for each sample assuming standard application to the skin—2 mg/cm^2: • the SPF values. • the critical wavelength λC • the UVA/UVB ratio
The SPF values in vitro were calculated according to the method described by Sayre et al., (Sayre, R M; Agin, P P; LeVee, G J; Marlowe, E. A comparison of in vivo and in vitro testing of sunscreening formulas, Photochem. Photobiol. 1979, 29, 559-566). The calculation was done using Equation 1: […]
where Ss(λ) is the spectral irradiance, Ser(λ) is the CIE erythema action spectrum and T(λ) is the transmission of the sunscreen. The values of Ss(λ) and Ser(λ) were taken from the literature (B. L. Diffey, J. Robson. A new substrate to measure sunscreen protection factors throughout the ultraviolet spectrum, J. Soc. Cosmet. Chem. 1989, 40, 127-133). […]
SPF values were calculated using Eq. 1 for sun protective cosmetics applied at 2 mg/cm^2 (standard application).
The same methods and equations as in the case of plant extracts were applied.
Solutions of sunscreens at concentrations 0.001% were prepared in duplicate and UV-visible absorption spectra were recorded over the range of 250-600 nm (FIG. 1). On the basis of these spectra, the transmission of the sunscreen (T) was found from monochromatic absorbance values at wavelength λ: T=10^−A(λ).
The SPF in vitro was calculated according to the method described by Sayre et al., (Sayre, R M; Agin, P P; LeVee, G J; Marlowe, E. A comparison of in vivo and in vitro testing of sunscreening formulas, Photochem. Photobiol. 1979, 29, 559-566) following equation 1: […]
where Ss(λ) is the spectral irradiance, Ser(λ) the CIE erythema action spectrum and T(λ) the trans-mission of the sunscreen. Data for Ss(λ) and Ser(λ) are available in the literature (B. L. Diffey, J. Robson. A new substrate to measure sunscreen protection factors throughout the ultraviolet spectrum, J. Soc. Cosmet. Chem. 1989, 40, 127-133).
The SPF values were calculated using Eq 1 with the application conditions 2 mg/cm^2 (Standard application recommended by the European Agency).
The SPF value for lotions were calculated using Eq. 1 for three application conditions at 2 mg/cm^2 (standard application), 2.5 mg/cm^2 and 3 mg/cm^2. In the same Table 22, critical wavelength and the UVA/UVB ratios are shown.

[2] = Critical wavelength (λC) from absorption spectra (Eq. 2); format: physicochemical; settings: for critical wavelength: chemical sunscreen, no concentration stated
Protocol: The Critical Wavelength λC is the wavelength, where the area under the absorbance spectrum for the irradiated product from 290 nm to λC is equal to 90% of the integral value of the absorbance spectrum from 290 to 400 nm and was calculated using Eq. 2:
where A (λ)=monochromatic absorbance values at wavelength λ. The critical wavelength was determined for all samples in order to assess a degree of UVA protection. In cases where the critical wavelength is lower than 370 nm, the protection from UVA is less evident.
The Critical Wavelength λC value for the test product was defined as that wavelength where the area under the absorbance spectrum of the sample from 290 nm to λC is 90% of the integral of the absorbance spectrum from 290 to 400 nm and is calculated using Eq. 2:
[formula] • A(λ)=monochromatic absorbance values at wavelength λ

[3] = UVA/UVB ratio from absorption spectra (Eq. 3) and Boots UVA Star Rating; format: physicochemical; settings: for ratio UVA/UVB: chemical sunscreen, no concentration stated
Protocol: Critical Wavelength (λC) and the UVA/UVB ratios were also calculated from the absorption spectra and were collected in Table 2. […] According to these International indications, aqueous solutions of Haberlea rhodopensis with different concentrations of myconoside can be attributed to the group of good protection (2 UVA Star Rating).
In order to further characterize solutions as skin photo-protectors from UVA, the UVA/UVB ratio was calculated using Eq. 3: […]
In order to characterize the ability of creams to protect skin against UVA the UVA/UVB ratio was calculated using Eq. 3: […]

[4] = Photo-stability under solar imitating UVA+UVB irradiation; format: physicochemical; settings: absorption spectra without and after up to 40 min irradiation
[5] = SPF calculated by modified Sayre method; format: physicochemical
Excerpt: In the following Table 20, there are SPF values obtained in vitro spectrophotometrically, which have been calculated by a classical Sayre method (Sayre, R M; Agin, P P; LeVee, G J; Marlowe, E. A comparison of in vivo and in vitro testing of sunscreening formulas, Photochem. Photobiol. 1979, 29, 559-566) and modified Sayre method, which gives results similar to those obtained in the in vivo tests recommended by COLIPA.
• (1) For water insoluble chemical filters, the modified Sayre method gives results close to those calculated by Simulator-Calculator (BASF) and the in vivo tests. The Simulator-Calculator uses the modified Sayre method assuming an exponentiation equal to 0.827 (X^0.827). • (2) For water soluble natural filters, the same modified Sayre method would give results close to those obtained by the in vivo tests (predicted by Simulator-Calculator). Examples of Cosmetic Compositions with Fully Natural Sun Protective Factors • 1. Sun protective lotion SPF 50+, high UV-A protection • 2. Sun protective cream SPF 50+, high UV-A protection • 3. Sun protective serum for pregnant and milking women SPF 50+, high UV-A protection • 4. Sun protective milk for babies SPF 50+, high UV-A protection • 5. Sun protective lotion SPF 20-30, high UV-A protection for people with highly sensitive skin E. Analysis of Sun Protective Parameters of Two Lotions and Cream Containing Lippia citriodora Extract with 40% of Verbascoside.

[6] = organic (synthetic) chemical sunscreens, Table 1; cited from earlier work
[7] = Solubility of chemical UV filters
[8] = UV filter 0.5% in sun protective cosmetic (Table 20)
[9] = UV filter 1.0% in sun protective cosmetic (Table 20)
[10] = UV filter 2.5% in sun protective cosmetic (Table 20)
[11] = chemical UV filter 0.5% in sun protective solution (Tables 12-19)
[12] = chemical UV filter 1% in sun protective solution (Tables 12-19)
[13] = chemical UV filter 2.5% in sun protective solution (Tables 12-19)
[14] = chemical UV filter 5% in sun protective solution (Tables 12-19)
[15] = chemical UV filter 10% in sun protective solution (Tables 12-19)
[16] = chemical UV filter 0.5% in sun protective solution
[17] = chemical UV filter 1% in sun protective solution
[18] = chemical UV filter 2.5% in sun protective solution
[19] = chemical UV filter 5% in sun protective solution
[20] = chemical UV filter 10% in sun protective solution
[21] = UV filter 0.5% in sun protective cosmetic
[22] = UV filter 1.0% in sun protective cosmetic
[23] = UV filter 2.5% in sun protective cosmetic
[24] = UV filter 5% in sun protective cosmetic
[25] = UV filter 10% in sun protective cosmetic
[26] = UV filter 5% in sun protective cosmetic (Table 20)

| Compound | SPF values calculated by the Sayre equation [1, 8] | SPF values calculated by the Sayre equation [1, 9] | SPF values calculated by the Sayre equation [1, 10] | SPF values [1, 11] | SPF values [1, 12] | SPF values [1, 13] | SPF values [1, 14] | Critical wavelength (λC) [2, 16] [nm] | Critical wavelength (λC) [2, 17] [nm] | Critical wavelength (λC) [2, 18] [nm] | Critical wavelength (λC) [2, 19] [nm] | critical wavelength [2] [nm] | Photo-stability to solar imitating UVA+UVB irradiation [4] | SPF values calculated by Modified Sayre [5, 21] | SPF values calculated by Modified Sayre [5, 22] | SPF values calculated by Modified Sayre [5, 23] | SPF values calculated by Modified Sayre [5, 24] | Absorbs UV-B [6] | other results |
| --- | --- | --- | --- | --- | --- | --- | --- | --- | --- | --- | --- | --- | --- | --- | --- | --- | --- | --- | --- |
| CCCCC(CC)COc1ccc(-c2nc(-c3ccc(OC)cc3)nc(-c3ccc(OCC(CC)CCCC)cc3O)n2)c(O)c1 (stereo not drawn) [Bis-ethylhexyloxyphenol methoxyphenyl triazine] | 4.8 | 19 | 93 | 5.7 | 25 | 60 | 89 | 365 | 365 | 365 | 365 | 365 | HIGHLY unstable | 4.2 | 7.5 | 16.1 | 29 | – | SPF ([1]; chemical UV filter 1.5%): 60; SPF ([1]; chemical UV filter 2.0%): 89; SPF values [1, 15]: 107; Critical wavelength (λC) [2, 20]: 365 nm; UVA/UVB [3, 16]: 0.50; UVA/UVB [3, 17]: 0.50; UVA/UVB [3, 18]: 0.50; UVA/UVB [3, 19]: 0.50; UVA/UVB [3, 20]: 0.50; ratio UVA/UVB [3]: 0.50; SPF values calculated by Modified Sayre [5, 25]: 50 |
| CC(C)(C)CC(C)(C)c1cc(Cc2cc(C(C)(C)CC(C)(C)C)cc(-n3nc4ccccc4n3)c2O)c(O)c(-n2nc3ccccc3n2)c1 [Tinosorb M] | – | – | – | – | – | – | – | – | – | – | – | – | – | – | – | – | – | UV-B | – |
| CCCCC(CC)COc1ccc(-c2nc(-c3ccc(OC)cc3)nc(-c3ccc(OCC(CC)CCCC)cc3O)n2)c(O)c1 (stereo not drawn) [Tinosorb S] | – | – | – | – | – | – | – | – | – | – | – | – | – | – | – | – | – | UV-B | Absorbs UV-A [6]: UV-A |
| CCCCC(CC)COC(=O)c1ccc(Nc2nc(Nc3ccc(C(=O)NC(C)(C)C)cc3)nc(Nc3ccc(C(=O)OCC(CC)CCCC)cc3)n2)cc1 (stereo not drawn) [Uvasorb HEB] | – | – | – | – | – | – | – | – | – | – | – | – | – | – | – | – | – | UV-B | – |
| CCCCCCOC(=O)c1ccccc1C(=O)c1ccc(N(CC)CC)cc1O [Uvinul A plus] | – | – | – | – | – | – | – | – | – | – | – | – | – | – | – | – | – | – | Absorbs UV-A [6]: UV-A |
| CCCCCCCCCCCCc1cc(C)cc(-n2nc3ccccc3n2)c1O [benzotriazolyl dodecyl p-cresol, Benzotriazolyl dodecyl p-cresol] | 2.1 | 5 | 29 | 2.4 | 6 | 41 | 105 | 363 | 363 | 363 | 363 | 363 | – | 2.0 | 3.1 | 5.4 | 8.3 | – | SPF values calculated by the Sayre equation [1, 26]: 91; SPF values calculated by the Sayre equation ([1]; UV filter 10% in sun protective cosmetic (Table 20)): 132; SPF values [1, 15]: 157; Critical wavelength (λC) [2, 20]: 363 nm; UVA/UVB [3, 16]: 0.62; UVA/UVB [3, 17]: 0.62; UVA/UVB [3, 18]: 0.62; UVA/UVB [3, 19]: 0.62; UVA/UVB [3, 20]: 0.62; ratio UVA/UVB [3]: 0.62; SPF values calculated by Modified Sayre [5, 25]: 12.7; SPF values calculated by Modified Sayre ([5]; UV filter 20% in sun protective cosmetic): 19; Solubility in water [7]: insoluble in water |
| CCCCC(CC)COC(=O)C=Cc1ccc(OC)cc1 (stereo not drawn) [octyl methoxycinnamate, Ethylhexyl methoxycinnamate] | – | – | – | – | – | – | – | – | – | – | – | – | HIGHLY unstable | – | – | – | – | – | – |
| butylmethoxydibenzoylmethane [avobenzone] | 1.5 | 2.0 | 6.1 | 1.9 | 3.0 | 19 | 297 | 385 | 385 | 385 | 385 | 385 | HIGHLY unstable | 1.5 | 2.1 | 3.2 | 4.4 | – | SPF values calculated by the Sayre equation [1, 26]: 32 |
